One assay relates to CRD7. The experiment in a line: phage spot ELISA on CRD7. It is filed as binding. As to conditions: for S/N: phage spot ELISA signal/noise; for S/N / ELISA: S3 Table sheet CRD7; for ELISA: phage spot ELISA signal; for ELISA signal: phage spot ELISA of the clone, positive hit: signal > 0.3 and signal/noise > 2; for ELISA s/n: phage spot ELISA signal/noise ratio. An excerpt:
(§1) To determine the performance of the libraries for ligand discovery we chose a panel of eight protein targets, which have no structural homology and a wide mass range (Fig 7C). We screened these eight targets with solution panning strategy and two additional plate panning for CD8α/β and CD28, thus ten panning campaigns in total. We consider clones showing spot phage ELISA signal > 0.3 and signal/noise ratio > 2 as positive hits. At least one binding hit was discovered for nine out of the ten panning campaigns, surpassing the success rate of the best DCP scaffolds reported previously. We also obtained the NGS data for these screening and the ranking of clones for their enrichment along the rounds of screening was analyzed and considered the top-ranking clones as potential hits. Based on their sequence diversity we selected 16 potential hits spanning five protein targets for peptide synthesis in their linear form. Seven of these are hits with positive phage ELISA signal and nine were selected based on NGS ranking without spot ELISA available. Subsequently, we conducted in vitro folding experiments on these peptides in various buffers. We observed a strong propensity for spontaneous folding regardless of the buffer condition. All HCP hits tested successfully folded into three-disulfide-containing product within two days in a universal buffer system (PBS, pH 7.4, 50% DMSO) without the need for a redox pair, as shown in Fig 8A. The binding of these folded peptides to their respective target proteins was confirmed using SPR (Table 4 and S1 Data) and binding kinetics are exemplified by the high-affinity peptide 5ji4-CRD7-2 (see Fig 8B). Among seven selected ELISA-positive hits, all of them were successfully synthesized and in vitro folded with three disulfide bonds and five were proven to be validated binders by SPR (Table 4). Nine peptides selected from the NGS ranking were synthesized and folded with the expected number of disulfide bonds and five of them bound to their target with affinities in the μM range as determined by SPR (Table 4). In general, binding affinities for these SPR-validated initial hits are weak, with Kd values in the micromolar range and fast on- and off-rates. There are two exceptions with binding affinities in the nanomolar range.
(§2) The 5ji4 libraries were constructed following the Kunkel mutagenesis method and the solution panning protocol was followed as previously described. After four to five rounds of binding selection, while eluted pool was subjected to NGS analysis, individual phage clones were also picked and analyzed with phage spot ELISA. Positive clones were subjected to SANGER sequencing.

For the next assay, the system named is CD28. The experiment in a line: phage spot ELISA on CD28. The format is binding. As to conditions: for S/N: phage spot ELISA signal/noise; for ELISA: phage spot ELISA signal.
Text: as §1, §2

[1] abbreviates: S3 Table sheet CD28-2 (panning campaign 2).
Setting [2] is: S3 Table sheet CD28-1 (panning campaign 1).

Where a SMILES comes first, the peptide text is derived from it. Bridges are numbered along the chain shown (N, C = ends).

In the assay with CRD7, “PCECDVNGETYTVSSSEECGRLCMNDWATTCRVHCG [CRD7 clone 7, phage clone, 5JI4 library, CRD7 panning]” gave a S/N of 14.5714 and an ELISA of 0.918.
In the same order, the values of “PCECIWANYVGYPFSSEECERLCRKLGVTNCRVHCG [CRD7 clone 3, phage clone, 5JI4 library, CRD7 panning]” are 2.388 and 0.289.
In the assay with CRD7, “PCECDVNGETYTVSSSEECGRLCMQPWAHTCRVHCG [CRD7 clone 9, phage clone, 5JI4 library, CRD7 panning]” registered a S/N of 4.522 and an ELISA of 0.312.
In the same order, the values of “PCECPIRPYGVPVKSSEECERLCRKLGVTNCRVHCG [CRD7 clone 2, phage clone, 5JI4 library, CRD7 panning]” are 4.654 and 0.377.
On to “PCECRWMFYSTWELSSEECERLCRKLGVTNCRVHCG [CRD7 clone 4, phage clone, 5JI4 library, CRD7 panning]”, for which, in the assay with CRD7, the S/N was determined as 4 and the ELISA is 0.28.
As for “PCECNYIPWIWIPQSSEECERLCRKLGVTNCRVHCG [CRD7 clone 5, phage clone, 5JI4 library, CRD7 panning]”, in the assay with CRD7, the S/N was found to be 3.588 and the ELISA is listed as 0.244.
In the same order, the values of “PCECPSSVYWYFISSSEECERLCRKLGVTNCRVHCG [CRD7 clone 6, phage clone, 5JI4 library, CRD7 panning]” are 3.75 and 0.225.
“PWNANVNGETYTVSSSEECERLCSAGLVNSCRVHCG [CD28-2 clone 1, phage clone, 5JI4 library, CD28-2 panning]”: in the assay on CD28 (setting [1]), the S/N is 7.9375 and the ELISA is listed as 0.508.
On to “RANATEWVPWIIYQSSEECERLCRKLGVTNCRVHCG [CD28-1 clone 2, phage clone, 5JI4 library, CD28-1 panning]”, for which, in the assay on CD28 (setting [2]), the S/N worked out at 5.637 and the ELISA came out at 0.5.
Consider `CSCC[C@@H]1NC(=O)[C@@H]2CSSC[C@H](NC(=O)[C@H]([C@@H](C)O)NC(=O)[C@H]([C@@H](C)O)NC(=O)[C@H](C)NC(=O)[C@H](Cc3c[nH]c4ccccc34)NC(=O)[C@H](CC(=O)O)NC(=O)[C@H](CC(N)=O)NC1=O)C(=O)N[C@@H](CCCNC(=N)N)C(=O)N[C@@H](C(C)C)C(=O)N[C@@H](Cc1c[nH]cn1)C(=O)N[C@H](C(=O)NCC(=O)O)CSSC[C@H](NC(=O)[C@@H]1CCCN1)C(=O)N[C@@H](CCC(=O)O)C(=O)N[C@H]1CSSC[C@H](NC(=O)[C@H](CCC(=O)O)NC(=O)[C@H](CCC(=O)O)NC(=O)[C@H](CO)NC(=O)[C@H](CO)NC(=O)[C@H](CO)NC(=O)[C@H](C(C)C)NC(=O)[C@H]([C@@H](C)O)NC(=O)[C@H](Cc3ccc(O)cc3)NC(=O)[C@H]([C@@H](C)O)NC(=O)[C@H](CCC(=O)O)NC(=O)CNC(=O)[C@H](CC(N)=O)NC(=O)[C@H](C(C)C)NC(=O)[C@H](CC(=O)O)NC1=O)C(=O)NCC(=O)N[C@@H](CCCNC(=N)N)C(=O)N[C@@H](CC(C)C)C(=O)N2` [5ji4-CRD7-3] (H-PCECDVNGETYTVSSSEECGRLCMNDWATTCRVHCG-OH; disulfide 2-35, 4-19, 23-31), for which, in the assay with CRD7, the ELISA signal is listed as 0.65 and the ELISA s/n is 9.52.
In the case of “PCESIQDVWIIHDSSEECERLCRKLGVTNCRVHCG [CD28-1 clone 6, phage clone, 5JI4 library, CD28-1 panning]”, in the assay on CD28 (setting [2]), the S/N was determined as 2.28 and the ELISA is recorded as 0.244.
In the assay with CD28 (setting [2]), “PCEFARQNVFIVHSSSEECERLCRTLGVTNCRVHCG [CD28-1 clone 8, phage clone, 5JI4 library, CD28-1 panning]” registered a S/N of 1.6194 and an ELISA of 0.217.
Regarding `CC[C@H](C)[C@@H]1NC(=O)[C@@H]2CCCN2C(=O)[C@@H]2CSSC[C@H](NC(=O)[C@H](CCC(=O)O)NC(=O)[C@H](CCC(=O)O)NC(=O)[C@H](CO)NC(=O)[C@H](CO)NC(=O)[C@H](CCCCN)NC(=O)[C@H](C(C)C)NC(=O)[C@@H]3CCCN3C(=O)[C@H](C(C)C)NC(=O)CNC(=O)[C@H](Cc3ccc(O)cc3)NC(=O)[C@@H]3CCCN3C(=O)[C@H](CCCNC(=N)N)NC1=O)C(=O)N[C@@H](CCC(=O)O)C(=O)N[C@@H](CCCNC(=N)N)C(=O)N[C@@H](CC(C)C)C(=O)N[C@H]1CSSC[C@H](NC(=O)[C@H](CC(N)=O)NC(=O)[C@H]([C@@H](C)O)NC(=O)[C@H](C(C)C)NC(=O)CNC(=O)[C@H](CC(C)C)NC(=O)[C@H](CCCCN)NC(=O)[C@H](CCCNC(=N)N)NC1=O)C(=O)N[C@@H](CCCNC(=N)N)C(=O)N[C@@H](C(C)C)C(=O)N[C@@H](Cc1c[nH]cn1)C(=O)N[C@H](C(=O)NCC(=O)O)CSSC[C@H](NC(=O)[C@@H]1CCCN1)C(=O)N[C@@H](CCC(=O)O)C(=O)N2` [5ji4-CRD7-2] (H-PCECPIRPYGVPVKSSEECERLCRKLGVTNCRVHCG-OH; disulfide 2-35, 4-19, 23-31), in the assay on CRD7, the ELISA signal stood at 0.37 and the ELISA s/n was determined as 4.60.
Consider “PCECDVNGETYTVSSSEGCERLCSWDTRRMCRVHCG [CD28-1 clone 14, phage clone, 5JI4 library, CD28-1 panning]”, for which, in the assay on CD28 (setting [2]), the S/N is on record as 2.852 and the ELISA was 0.231.
For “PCESQSMQHFIIYNSSEECERLCRKLGVTNCRVHCG [CD28-1 clone 1, phage clone, 5JI4 library, CD28-1 panning]”, in the assay with CD28 (setting [2]), the S/N was 4.839 and the ELISA stood at 0.542.
In the assay on CD28 (setting [2]), “PCECDVNGETYTVSSSEGCERLCSWDQGKWCRVHCG [CD28-1 clone 13, phage clone, 5JI4 library, CD28-1 panning]” displayed a S/N of 2.33 and an ELISA of 0.247.
In the same order, the values of “PYECWRGQYFIIYKSSEECERLCRKLGVTNCRVHCG [CD28-1 clone 11, phage clone, 5JI4 library, CD28-1 panning]” are 2.209 and 0.201.
In the assay on CD28 (setting [2]), “PCECDVNGETYTVSSSEECERPCSWNEAFSCRVHCG [CD28-1 clone 15, phage clone, 5JI4 library, CD28-1 panning]” displayed a S/N of 2.576 and an ELISA of 0.219.
The matching figures for “LECSHLQMFVIYNSSEECERLCRKLGVTSCRVHCG [CD28-1 clone 10, phage clone, 5JI4 library, CD28-1 panning]”: 2.405 and 0.202.
Regarding “PCECPATVHWYFIGSSEECERLCRKLGVTNSRVHCD [CRD7 clone 1, phage clone, 5JI4 library, CRD7 panning]”, in the assay with CRD7, the S/N was determined as 7.871 and the ELISA is on record as 0.488.
Regarding “PCECDVNGETYTVSSSEECGRLCMTDWVTSCRVHCG [CRD7 clone 8, phage clone, 5JI4 library, CRD7 panning]”, in the assay on CRD7, the S/N worked out at 5.905 and the ELISA was found to be 0.372.

These data come from paper PMC11611271, “Rapid prediction of key residues for foldability by machine learning model enables the design of highly functional libraries with hyperstable constrained peptide scaffolds” (PLOS Computational Biology, 2024).
